Measurements: patent US20140017336A1, “CO-ADMINISTRATION OF ARSENIC COMPOUNDS AND ANTI-HERPES VIRUS ANTI-VIRALS” (priority 2011, published 2014)
Entries after “also recorded” stand apart in the source; their conditions may differ.

Assays:
[1] = tested on: MUTU1<DNE1> cells (EBV-negative); assay: Viable cell count (trypan blue exclusion), MUTU1<DNE1> cells; format: cell-based, human; details: 10 nM or 100 nM ATO, 2 and 3 days
EBV Zta = assay: Western blot of Zta in EBV-negative MUTU cells; format: cell-based, Epstein-Barr virus; details: 0, 10 nM, 100 nM ATO, day 3
[2] = dosage of ATO approved for relapsed or refractory acute promyelocytic leukemia (Fox et al., 2008); cited from earlier work
[3] = tested on: MUTU1 cells (EBV positive Burkitt's lymphoma-derived); assay: Viable cell count (trypan blue exclusion), MUTU1 cells; format: cell-based, human; details: 10 nM or 100 nM ATO, 2 and 3 days
Zta mRNA = Zta mRNA transcription in LCL<EBV1-13> cells; format: cell-based, Epstein-Barr virus; details: three days, 10 nM ATO
Method: (§1) FIGS. 8A-D. B-cells recently isolated from a patient were infected with EBV, allowed to grow out for several generations (only the EBV-infected cells would be able to grow out), and frozen until use. FIGS. 8A and B. FIGS. 8A and B graph the relative percent of viability of EBV-infected B-cells as just described (LCL<EBV1-13> cells) thawed and grown in one of: media alone (“control”), media and 45 μM ganciclovir (GCV), media and […] arsenic trioxide (ATO), or media and a combination of these concentrations of GCV and ATO. The bars show the relative viability of cells after 2 days of this treatment (“2 D,” FIG. 8A), and at three days (“3 D,” FIG. 8B). FIG. 8C. Epstein-Barr nuclear antigen (“EBNA”) driven by the C promoter (“Cp”) is transcribed only during the latent phase of the virus. FIG. 8C graphs the relative expression of EBNA Cp mRNA of LCL<EBV1-13> cells grown three days (“3 D”) in media alone (“control”), media and 45 μM ganciclovir (GCV), media and 10 nM arsenic trioxide (ATO), or media and a combination of these concentrations of GCV and ATO. […] FIG. 8D. FIG. 8D graphs the relative transcription of the viral immediate early protein Zta mRNA of LCL<EBV1-13> cells grown three days (“3 D”) in media alone (“control”), media and 45 μM ganciclovir (GCV), media and 10 nM arsenic trioxide (ATO), or media and a combination of these concentrations of GCV and ATO. […]

EBV BMRF1 mRNA [4] = format: cell-based, Epstein-Barr virus; details: within 72 hours, qRT-PCR
[5] = tested on: uninfected parental A549 cells; details: 4 days, 10 nM ATO, 40 μM GCV
EBNA Cp mRNA = EBNA Cp mRNA expression in LCL<EBV1-13> cells; format: cell-based, Epstein-Barr virus; details: three days, 10 nM ATO
Method: as §1

EBV BMRF1 mRNA [6] = assay: qRT-PCR of BMRF1 mRNA in CNE1<EBV-BX1> cells; format: cell-based, Epstein-Barr virus
A549<EBVBX1>3A cells = assay: Annexin V/propidium iodide viability, EBV infected A549 cells; details: 4 days

For arsenic trioxide [ATO], the “viable cells, EBV-negative MUTU cells” value [1] is given as “No effect”, the “Zta expression (Western blot), EBV-negative MUTU cells” value (EBV Zta) is given as “absent; also recorded: no Zta expression” and the “peak serum arsenic level” value [2] is given as roughly 400 nM. The “cell viability, EBV positive MUTU cells” value [3] was “dose and time dependent suppression of cell viability”, the “relative transcription of Zta mRNA” value (Zta mRNA) was “approximately fourfold higher” and the “ATO dose inducing BMRF1 mRNA” value (EBV BMRF1 mRNA [4]) was no less than 12.5 nM. For the same substance, the “viability of uninfected parental cells” value [5] was “did not affect the viability; also recorded: no effect on the viability”, the “relative expression of EBNA Cp mRNA” value (EBNA Cp mRNA) was “drops dramatically” and the “ATO dose inducing upregulation of BMRF1 mRNA” value (EBV BMRF1 mRNA [6]; 48 hours, 'as low as', to a lesser extent than ZTA) was 1.25 nM. The “BMRF1 mRNA expression compared to control” value (EBV BMRF1 mRNA [6]; 4 days, 1 nM ATO and/or 40 μM GCV) was “increased”, the “percentage of annexin V positive cells” value (A549<EBVBX1>3A cells; control 21%) was 58% and the “percentage of viable cells” value (A549<EBVBX1>3A cells; EBV positive cells, control 67%) was 35%.
